From patent US20240336655A1, “AMPHIPHILIC PEPTIDES FOR NUCLEIC ACID AND PROTEIN DELIVERY” (AJK BIOPHARMACEUTICAL, LLC, priority 2021, published 2024) come the findings set out here.

For one data set, the system named is siRNA. The data set can be described thus: Serum stability / protection of siRNA against enzymatic degradation in fetal bovine serum. The data set is classed as in vitro ADME. The conditions noted are these: 24 hours of exposure to serum, N/P ratio of 40, compared to siRNA exposed to saline. An excerpt:
Serum Stability. In order to determine the capability of the complexes to protect the siRNA against enzymatic degradation, Inventors exposed different study groups to a diluted fetal bovine serum (FBS) solution, with “naked” siRNA as a positive control, and siRNA exposed to saline as a negative control according to the previously reported procedure (Mozaffari S, Bousoik E, Amirrad F, Lamboy R, Coyle M, Hall R, Alasmari A, Mahdipoor P, Parang K, Montazeri Aliabadi H. Amphiphilic Peptides for Efficient siRNA Delivery. Polymers (Basel). 2019; 11(4) doi: 10.3390/polym11040703. PubMed PMID: 30999603; PMCID: PMC6523661).
(§1) The binding affinity for [CR4W4C] […] The toxicity of the peptides was evaluated in triple-negative breast cancer (TNBC) cells MDA-MB-231 (as a model cancer cell line) with peptide alone and siRNA complexes, and CCK assay to quantify cell viability after 48 hours.
Protection of siRNA against Enzymatic Degradation. […] After the incubation, complexes were dissociated using a 2:3 mixture of heparin (5% solution in normal saline) and EDTA (0.5 mM), and the samples were analyzed using a 1% agarose gel (with 1 μg/mL ethidium bromide) at 70 V for 20 minutes. UV illumination (Gel-Doc system, Bio-Rad; Hercules, CA) was used to visualize the gel, and the intensity of the bands (representing remaining intact siRNA) was quantified by Image J software (FIG. 8).

The test system of another data set is MDA-MB-231 cells. The data set can be described thus: Cytotoxicity of peptides and peptide/siRNA complexes in MDA-MB-231 cells (MTT / CCK). The data set is classed as cell-based, human. The conditions noted are these: as compared to commercial agent lipofectamine. As to the method: as §1
The human breast cancer cell line MDA-MB-231 was purchased from American Type Culture Collection (ATCC; Manassas, VA). MDA-MB-231 was cultured in the DMEM medium. The media was supplemented with 10% (v/v) fetal bovine serum, 100 U/mL penicillin, and 100 μg/ml streptomycin. Cells were maintained in the normal condition of 37° C. and 5% CO2 under a humidified atmosphere and were sub-cultured when 80-100% confluent.
Toxicity of the Peptide/siRNA Complexes: The effect of peptides on the viability of human cell lines was evaluated by exposing the MDA-MB-231 cell lines (FIGS. 9-12) to different concentrations of peptide solution and exposing the cells to peptide/siRNA complexes prepared with different peptides at a various peptide:siRNA ratios according to the previously reported procedure by us (Mozaffari S, Bousoik E, Amirrad F, Lamboy R, Coyle M, Hall R, Alasmari A, Mahdipoor P, Parang K, Montazeri Aliabadi H. Amphiphilic Peptides for Efficient siRNA Delivery. Polymers (Basel). 2019; 11(4). doi: 10.3390/polym11040703. PubMed PMID: 30999603; PMCID: PMC6523661). […]

Peptide text beside a SMILES is read from it.

Turning to `N=C(N)NCCC[C@@H]1NC(=O)[C@H](CCCNC(=N)N)NC(=O)[C@H](CCCNC(=N)N)NC(=O)[C@H](CCCNC(=N)N)NC(=O)[C@H](CCCNC(=N)N)NC(=O)[C@@H](NC(=O)[C@H](Cc2c[nH]c3ccccc23)NC(=O)[C@H](Cc2c[nH]c3ccccc23)NC(=O)[C@H](Cc2c[nH]c3ccccc23)NC(=O)[C@@H](N)Cc2c[nH]c3ccccc23)CSSC[C@@H](C(=O)N[C@@H](Cc2c[nH]c3ccccc23)C(=O)N[C@@H](Cc2c[nH]c3ccccc23)C(=O)N[C@@H](Cc2c[nH]c3ccccc23)C(=O)N[C@@H](Cc2c[nH]c3ccccc23)C(=O)O)NC1=O` [W4[CR5C]W4] (HELM PEPTIDE1{W.W.W.W.C.R.R.R.R.R.C.W.W.W.W}$PEPTIDE1,PEPTIDE1,5:R3-11:R3$$$V2.0; N-terminus and C-terminus assumed), in the data set with siRNA, the “protection of siRNA in the presence of serum” value is given as “protect siRNA completely”. Further, the toxicity result with MDA-MB-231 cells is reported as “without toxicity”.

For the molecule `N=C(N)NCCC[C@@H]1NC(=O)[C@H](CCCNC(=N)N)NC(=O)[C@H](CCCNC(=N)N)NC(=O)[C@H](CCCNC(=N)N)NC(=O)[C@@H](N)CSSC[C@@H](C(=O)O)NC(=O)[C@H](Cc2c[nH]c3ccccc23)NC(=O)[C@H](Cc2c[nH]c3ccccc23)NC(=O)[C@H](Cc2c[nH]c3ccccc23)NC(=O)[C@H](Cc2c[nH]c3ccccc23)NC1=O` [[CR4W4C]] (HELM PEPTIDE1{C.R.R.R.R.W.W.W.W.C}$PEPTIDE1,PEPTIDE1,1:R3-10:R3$$$V2.0; N-terminus and C-terminus assumed), in the data set with siRNA, the “protection of siRNA in the presence of serum” value is “protect siRNA completely”. Further, the toxicity entry in the data set with MDA-MB-231 cells is reported as “without toxicity”.
